Measurements taken from patent publication US9951060B2, “2-acylaminothiazole derivative or salt thereof” (ASTELLAS PHARMA INC., priority 2014, dated 2018).

Columns and labels:
rat isolated bladder = test: Test Example 3: effect on electrical field stimulation-induced contraction in rat isolated bladder; details: 10 μM test substance; AUC of contraction, value before treatment = 100%; SD female rat bladder
Procedure: Test Example 3: Effect on Electrical Field Stimulation-Induced Contraction in Rat Isolated Bladder
As an effect on the nerve stimulation-dependent bladder contraction in in vitro, the effect of the Example compounds of the present invention in the electrical field stimulation-induced contraction of the rat isolated bladder was measured by the following method. That is, a bladder specimen having a width of about 2 mm and a length of about 10 mm in the longitudinal direction from the bladder isolated from a Sprague-Dawley (SD) female rat (Japan SLC, Inc.) was prepared. The prepared bladder specimen was suspended in an organ bath filled with 10 mL of a Krebs-Henseleite solution. The Krebs-Henseleite solution was aerated at 95% 02 and 5% CO2, and kept at 37° C. After carrying out stabilization at an initial tension of 1 g, the contraction was caused twice with 60 mM KCl. After stabilization of the specimen with a Krebs-Henseleite solution, the contraction was caused by carrying out electrical field stimulation at 20 V with an electrical stimulation device (Nihon Kohden) (a stimulation frequency of 8 Hz, a pulse width of 0.3 msec, and a stimulation time of 10 seconds). By repeating the transmural electrical stimulation at an interval of 2 minutes, a voltage was adjusted to obtain a contraction height of approximately 50% of the contractile response at 20 V. After the contraction by electrical field stimulation had been stabilized, 10 μL of the test substances dissolved in 100% dimethyl sulfoxide in advance (final concentrations of 3 μM, 10 μM, and 30 μM) was added thereto. The test substances were cumulatively administered at the following concentrations after the low-concentration contractile response had been stabilized. The response was taken into a personal computer through a PowerLab (registered trademark) (AD Instruments, Inc.), and analyzed by LabChart (registered trademark) (AD Instruments, Inc.). When the area under the response (area under curve, AUC) in each contraction response was calculated and the value before treatment with the test substance was taken as 100%, the enhancement rate (% of pre) of the isolated bladder contractions after treatment with the test substance was calculated.

[1] = test system: pelvic nerve stimulation-induced elevation of intravesical pressure; test: Test Example 4: effect on pelvic nerve stimulation-induced elevation of intravesical pressure in anesthetized rats; assay type: in vivo, rat; details: 3 mg/kg intravenous; maximum effect within one hour; anesthetized SD female rats; pre-treatment = 100%
Procedure: Test Example 4: Effect on Pelvic Nerve Stimulation-Induced Elevation of Intravesical Pressure in Anesthetized Rats
The effect of the Example compounds of the present invention in the pelvic nerve electrical stimulation-induced elevation of intravesical pressure using rats as an action of nerve stimulation-dependent bladder contraction in vivo was measured by the following method. That is, SD female rats (Japan SLC, Inc.) were used and its lower abdomen was dissected at the midline under pentobarbital anesthesia (50 mg/kg ip). After ligating and cutting the ureter on both sides, a cannula (PE-50) for measuring the intravesical pressure was inserted into the bladder from the external urethral opening and fixed by a clip. After injecting about 200 μL of saline through the cannula that had been inserted into the bladder, the other side was connected to a pressure transducer to measure the intravesical pressure. Under a stereoscopic microscope observation, the pelvic nerve in the vicinity of the bladder was peeled and an electrode for nerve stimulation (unique Medical) was placed. The abdominal cavity was filled with mineral oil (MP BIOMEDICALS). After placing in a post-operative stabilization period, the pelvic nerve was subjected to electrical stimulation (stimulation voltage: 10 V, stimulation frequency: 8 Hz, pulse width: 0.3 msec, and stimulation time: 10 seconds) to elicit the elevation of intravesical pressure, using an electrical stimulator (Nihon Kohden). By repeating the electrical stimulation at an interval of 2 minutes while adjusting the voltage, the voltage was adjusted to elicit about 50% to 70% elevation of intravesical pressure elicited at 10 V. Thereafter, by repeating the electrical stimulation at an interval of 10 minutes, the increase in the intravesical pressure by electrical stimulation was stabilized three times or more, and the test substance (an administration amount of 3 mg/kg) was then administered from the catheter detained in the vein at a volume of 1 mL/kg, thus measuring an effect of the elevation of the intravesical pressure of the test substance for 1 hour. The test substance was dissolved in water supplemented with 10% dimethylsulfoxide and 10% Cremophor.
The response was applied to a personal computer through a PowerLab (registered trademark) and analyzed by LabChart (registered trademark). The AUC of each elevation of the intravesical pressure was calculated, the intravesical pressure elevation rate (% of pre) after the treatment with the test substance was calculated by taking an average value of the values measured three times before the treatment with the test substance as 100%, and the maximum effect during a period within one hour after administration of the compound was considered as the effect of the test substance.
The elevation rates (% of pre) of the intravesical pressure when some Example compounds were administered at 3 mg/kg are shown in Table 4.

[2] = molecular target: human muscarinic M3 receptor (Homo sapiens, UniProt P20309)
Chain of human muscarinic M3 receptor (P20309 whole entry): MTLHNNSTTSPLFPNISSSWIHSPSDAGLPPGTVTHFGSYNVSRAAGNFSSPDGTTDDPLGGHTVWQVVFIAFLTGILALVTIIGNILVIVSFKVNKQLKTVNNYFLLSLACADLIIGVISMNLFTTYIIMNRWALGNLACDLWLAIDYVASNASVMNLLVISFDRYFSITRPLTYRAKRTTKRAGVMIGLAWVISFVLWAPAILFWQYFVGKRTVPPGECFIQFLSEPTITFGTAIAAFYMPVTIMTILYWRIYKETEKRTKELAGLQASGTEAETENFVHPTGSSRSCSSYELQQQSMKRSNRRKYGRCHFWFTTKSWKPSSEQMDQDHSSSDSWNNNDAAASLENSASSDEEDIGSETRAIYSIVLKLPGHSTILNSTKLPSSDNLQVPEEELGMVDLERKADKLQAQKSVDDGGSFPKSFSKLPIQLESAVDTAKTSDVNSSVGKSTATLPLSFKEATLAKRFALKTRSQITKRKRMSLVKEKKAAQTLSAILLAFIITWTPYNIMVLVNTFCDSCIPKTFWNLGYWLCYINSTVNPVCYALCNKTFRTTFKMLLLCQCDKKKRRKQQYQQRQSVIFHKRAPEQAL
Excerpt: Test Example 1: Evaluation of Muscarinic M3 Receptor Positive Allosteric Modulator Activity
a) Construction of Vector Expressing Human Muscarinic M3 Receptor
A human muscarinic M3 receptor gene (GenBank Accession No.: NM_000740.2) was introduced into an expression vector pcDNA3.1™ (Life Technologies).
b) Construction of Cells Stably Expressing Human Muscarinic M3 Receptor
A vector expressing a human muscarinic M3 receptor was introduced into a CHO—K1 cell (ATCC No.: CCL-61). The introduction was carried out according to the attached instructions, using a transfection reagent, Lipofectoamine (registered trademark) 2000 Reagent (Life Technologies). The cells were incubated in an alpha Modified Eagle Minimum Essential Medium (α-MEM) including 2 mM glutamine, 10% fetal bovine serum, and 2.0 mg/mL Geneticin (registered trademark) (Life Technologies) for 4 weeks to acquire a drug-resistant clone.
c) Measurement of Intracellular Ca^2+ Concentration
The cells obtained in b) above were suspended in an α-MEM including 2 mM glutamine, 10% fetal bovine serum, and 0.2 mg/mL Geneticin (registered trademark) to the amount from 1.2 to 1.5×10^4 cells/well the day before the experiment, dispensed into a 384-well plate (Model No. 355962, BD Biosciences), and incubated overnight at 37° C. and 5% CO2. The medium was replaced with a loading buffer (an assay buffer (Hank's balanced salt solution (HBSS), 1 g/L BSA, 20 mM HEPES (pH 7.5), and 2.5 mM probenecid), including 3.1 μM Fluo 4-AM (Dojindo Laboratories) and incubated for about 2 hours at room temperature. Thereafter, the cells were washed with a plate washer ELx405™ (BIO-TEK Instrument, Inc.) set with the assay buffer, and set in an intracellular Ca^2+ concentration measuring system (FLIPR^tetra (registered trademark), Molecular Device Co.). The test substances (final concentration of 1 μM or 10 μM) and carbachol (Sigma, final concentration of 0.0024 nM to 10 μM) which had each been dissolved in the assay buffer in advance were set in a FLIPR^tetra (registered trademark). The test substances were added to the cells in the device and after about 5 minutes, carbachol was added to the cells. An increase rate of the intracellular Ca^2+ concentration by carbachol was measured (excitement wavelength of 470 nm to 495 nm and a fluorescence wavelength of 515 nm to 575 nm).
For the muscarinic M3 receptor-positive allosteric modulator activity, a shift toward a lower concentration side of a carbachol concentration-response curve by the test substance was used as an index. […] For example, when the EC50 value of carbachol in the absence of the test substance was 0.1 μM and the EC50 value of carbachol in the presence of the test substance was 0.01 μM, the value of the muscarinic M3 receptor-positive allosteric modulator activity becomes 10, showing that the test substance causes a 10-fold shift in the EC50 value toward to the low concentration side.

| SMILES | Enhancement rate (% of pre) of isolated bladder contractions (rat isolated bladder) | Increase rate (% of pre) of intravesical pressure [1] | muscarinic M3 receptor-positive allosteric modulator activity, 1 μM (-fold shift) [2] | muscarinic M3 receptor-positive allosteric modulator activity, 10 μM (-fold shift) [2] |
| --- | --- | --- | --- | --- |
| C[C@@H]1CCCN1Cc1sc(NC(=O)c2cnc(N3CCN(CC(=O)O)CC3)cn2)nc1-c1ccc(F)c(C(F)(F)F)c1 [Example 61] | 176 % of pre | 129 % of pre | 35 -fold shift | 229 -fold shift |
| CC(C(=O)O)N1CCN(c2cnc(C(=O)Nc3nc(-c4cc(F)cc(C(F)(F)F)c4)c(CN4CCC[C@H]4C)s3)cn2)CC1 (stereo partly drawn) [Example 64] | 162 % of pre | 135 % of pre | 23 -fold shift | 128 -fold shift |
| CC[C@@H]1CCCN1Cc1sc(NC(=O)c2cnc(N3CCN(CCC(=O)O)CC3)cn2)nc1-c1cccc(C(F)(F)F)c1 [Example 65] | 127 % of pre | 128 % of pre | 24 -fold shift | 90 -fold shift |
| C[C@@H]1CCCN1Cc1sc(NC(=O)c2cnc(N3CCN(CCC(=O)O)CC3)cn2)nc1-c1cc(C2CC2)cc(C(F)(F)F)c1 [Example 67] | 116 % of pre | 126 % of pre | 40 -fold shift | 114 -fold shift |
| COc1c(F)cc(-c2nc(NC(=O)c3cnc(N4CCN(CCC(=O)O)CC4)cn3)sc2CN2CCC[C@H]2C)cc1C(F)(F)F [Example 72] | 157 % of pre | 155 % of pre | 31 -fold shift | 152 -fold shift |
| C[C@@H]1CCCN1Cc1sc(NC(=O)c2cnc(N3CCN(CCC(=O)O)CC3)cn2)nc1-c1cc(Cl)cs1 [Example 82] | 158 % of pre | 138 % of pre | 11 -fold shift | 43 -fold shift |
| C[C@@H]1CCCN1Cc1sc(NC(=O)c2cnc(N3CCN(CCC(=O)O)[C@@H](C)C3)cn2)nc1-c1cc(C(F)(F)F)cs1 [Example 95] | 150 % of pre | 239 % of pre | 91 -fold shift | 233 -fold shift |
| CCN(CC)Cc1sc(NC(=O)c2cnc(N3CCN(CCC(=O)O)CC3)cn2)nc1-c1cc(F)cc(C(F)(F)F)c1 [Example 109] | 183 % of pre | 180 % of pre | 30 -fold shift | 191 -fold shift |
| C[C@@H]1CC[C@@H](C)N1Cc1sc(NC(=O)c2cnc(N3CCN(CCC(=O)O)CC3)cn2)nc1-c1cc(F)cc(C(F)(F)F)c1 [Example 119] | 154 % of pre | 173 % of pre | 110 -fold shift | 503 -fold shift |
| CCOc1ccc(-c2nc(NC(=O)c3cnc(N4CCN(CCC(=O)O)C[C@H]4C)cn3)sc2CN2CCC[C@H]2CC)cc1C(F)(F)F [Example 133] | 151 % of pre | 150 % of pre | 30 -fold shift | 164 -fold shift |
| CC[C@@H]1CCCN1Cc1sc(NC(=O)c2cnc(N3CCN(CCC(=O)O)C[C@H]3C)cn2)nc1-c1ccc(OC(C)C)c(C(F)(F)F)c1 [Example 135] | 139 % of pre | 168 % of pre | 25 -fold shift | 204 -fold shift |
| C[C@@H]1CCCN1Cc1sc(NC(=O)c2cnc(N3CCN(CCC(=O)O)C[C@H]3C)cn2)nc1-c1cc(F)cc(C(F)(F)F)c1 [Example 140] | 161 % of pre | 148 % of pre | 28 -fold shift | 158 -fold shift |
| C[C@@H]1CCCN1Cc1sc(NC(=O)c2cnc(N3CCN(CC(=O)O)C[C@H]3C)cn2)nc1-c1cc(F)cc(C(F)(F)F)c1 [Example 141] | 121 % of pre | 175 % of pre | 45 -fold shift | 159 -fold shift |
| C[C@@H]1CCCN1Cc1sc(NC(=O)c2cnc(N3CCN(CCC(=O)O)[C@@H](C)C3)cn2)nc1-c1cc(Cl)cs1 [Example 142] | 196 % of pre | 199 % of pre | 52 -fold shift | 160 -fold shift |
| CC[C@@H]1CCCN1Cc1sc(NC(=O)c2cnc(N3CCN(CCC(=O)O)[C@H](C)C3)cn2)nc1-c1cc(Cl)cs1 [Example 143] | 140 % of pre | 172 % of pre | 65 -fold shift | 81 -fold shift |
